Usually IC50 stands for the point on the concentration scale where inhibition reaches its midpoint.

The structures appear in SMILES notation.

Consider two compounds from patent publication US9676721B2, “Compounds and compositions for the inhibition of NAMPT” (FORMA TM, LLC, priority 2010, dated 2017).

Assay [1] deals with A2780 cells. The experiment in a line: In Vivo Xenograft Studies. To be noted: A2780 xenograft in C.B-17 scid mice, p.o. BID for 5 or 10 days. As to the method:
In Vivo Xenograft Studies: […] The compounds were formulated in 60:30:10 PEG-400:D5W: Ethanol and administered p.o., at the dose volume of 10 ml/kg BID for a duration of 5 or 10 days. The dose used for efficacy was selected from the MTD (Maximum Tolerated Dose) study. Mice were weighed and tumors measured using vernier calipers every alternate day. Tumor volume was calculated according to the formula (length×width^2)/2. All animal work was approved by the Institutional Animal Care and Use Committee of Biological Resource Centre, Singapore.

Assay [2] has as its system A2780 cells. The experiment in a line: In-Vitro Cell Proliferation Assay (SRB). The format is cell-based. As to conditions: Homo sapiens, A2780, 72 h. The essentials:
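A2780 cells treated 72 h at 37 °C, 5% CO2 with serially diluted compound, 0.1% DMSO final. Viable cells by sulforhodamine B staining after TCA fixation, absorbance 570 nm, background-subtracted for % inhibition and IC50; specificity checked by co-addition of NAM or NMN.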

The target of another assay is NAMPT (Homo sapiens (Human), UniProt P43490). The assay can be described thus: Biochemical Inhibition Assay (NAMPT enzymatic reaction, NMN by mass spectrometry). To be noted: recombinant His-tagged NAMPT 33 nM, 1 μM NAM, 30 minutes; read-out: Biochem IC50. Summed up:
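His-tagged human NAMPT from E. coli in 50 mM Hepes pH 7.5, 50 mM NaCl, 5 mM MgCl2, 1 mM THP. Product NMN quantified by RapidFire ESI mass spectrometry, normalised to L-cystathionine internal control and background-subtracted; % inhibition converted to IC50.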

The next assay has as its system tumor cell lines. As to conditions: broad range of tumor cell lines; cited from earlier work.

Chain of NAMPT (P43490 whole entry): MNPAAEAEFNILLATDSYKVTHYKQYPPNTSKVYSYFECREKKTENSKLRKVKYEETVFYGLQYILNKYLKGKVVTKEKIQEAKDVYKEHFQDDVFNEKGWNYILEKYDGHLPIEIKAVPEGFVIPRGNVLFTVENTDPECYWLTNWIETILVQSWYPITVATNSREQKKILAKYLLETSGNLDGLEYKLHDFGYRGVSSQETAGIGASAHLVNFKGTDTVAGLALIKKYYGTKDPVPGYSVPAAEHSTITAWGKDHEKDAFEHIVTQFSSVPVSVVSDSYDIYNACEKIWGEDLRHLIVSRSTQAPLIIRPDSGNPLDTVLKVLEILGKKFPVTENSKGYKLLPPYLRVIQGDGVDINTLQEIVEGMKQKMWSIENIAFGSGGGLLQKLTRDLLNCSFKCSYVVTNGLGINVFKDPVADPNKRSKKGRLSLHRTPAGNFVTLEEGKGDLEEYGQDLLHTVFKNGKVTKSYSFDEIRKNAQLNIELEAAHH

As to `CCOc1ccccc1S(=O)(=O)c1ccc(CNC(=NC#N)Nc2ccncc2)cc1` [2-cyano-1-({4-[(2-ethoxybenzene)sulfonyl]phenyl}methyl)-3-(pyridin-4-yl)guanidine], the “effect on tumor growth” value in the assay on A2780 cells [1] is recorded as “delayed tumor growth”. For the same compound, the 50% inhibitory concentration (IC50) was determined as 3.5 nM in the assay with A2780 cells [2] and 7.1 nM on NAMPT.

On to `N#C/N=C(\NCCCCCCOc1ccc(Cl)cc1)Nc1ccncc1` [CHS-828], for which the cell growth result in the assay with tumor cell lines is given as “potently inhibits cell growth”.
